Assay results reported in PubChem BioAssay (NCI).
Several values for one entry are separate records, joined by “and”; a condition that tells them apart may be missing. Equal values may be shown once.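 Briefly, cells in 96-well plates were exposed to five compound concentrations for 48 h, and endpoints were estimated by linear interpolation. The concentration for 50% growth inhibition is given as GI50. Definition used: TGI = concentration required for complete inhibition of growth.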 *1 amine or outer side, *2 acyl side, *3 side chain or, on linkers, in order; H or OH if unused. Where a SMILES comes first, the peptide text is derived from it. Bridges are numbered along the chain shown (N, C = ends). [ ]: non-standard residue; d: D form. The star is where a group is joined. ξ: configuration not given here. Phe(3,5-F2) = N[C@@H](Cc1cc(F)cc(F)c1)C(=O)O; ξThr(3S) = C[C@H](O[*:3])C(N[*:1])C(=O)[*:2]; Pro(4R-Me) = C[C@H]1CN[C@H](C(=O)O)C1; Pip = O=C(O)[C@@H]1CCCCN1; X1 = Cc1ccc(N*)c(F)c1; CO = O=C([*:1])[*:2]

Columns and labels:
Assay in all cases: DTP human tumour cell line panel, 48 h
786-0 renal = tested on: 786-0 renal
A498 renal = tested on: A498 renal
A549 NSCLC = tested on: A549 NSCLC
ACHN renal = tested on: ACHN renal
BT-549 breast = tested on: BT-549 breast
CAKI-1 renal = tested on: CAKI-1 renal
CCRF-CEM leukemia = tested on: CCRF-CEM leukemia
COLO 205 colon = tested on: COLO 205 colon
DU-145 prostate = tested on: DU-145 prostate
EKVX NSCLC = tested on: EKVX NSCLC
HCC-2998 colon = tested on: HCC-2998 colon
HCT-116 colon = tested on: HCT-116 colon
HCT-15 colon = tested on: HCT-15 colon
HL-60(TB) leukemia = tested on: HL-60(TB) leukemia
HOP-62 NSCLC = tested on: HOP-62 NSCLC
HOP-92 NSCLC = tested on: HOP-92 NSCLC
HS 578T breast = tested on: HS 578T breast
HT29 colon = tested on: HT29 colon
IGROV1 ovarian = tested on: IGROV1 ovarian
K-562 leukemia = tested on: K-562 leukemia
KM12 colon = tested on: KM12 colon
LOX IMVI melanoma = tested on: LOX IMVI melanoma
M14 melanoma = tested on: M14 melanoma
MALME-3M melanoma = tested on: MALME-3M melanoma
MCF7 breast = tested on: MCF7 breast
MDA-MB-231 breast = tested on: MDA-MB-231 breast
MDA-MB-435 = tested on: MDA-MB-435
MOLT-4 leukemia = tested on: MOLT-4 leukemia
NCI-H226 lung = tested on: NCI-H226 lung
NCI-H23 lung = tested on: NCI-H23 lung
NCI-H460 lung = tested on: NCI-H460 lung
NCI-H522 lung = tested on: NCI-H522 lung
NCI/ADR-RES ovarian = tested on: NCI/ADR-RES ovarian
OVCAR-3 ovarian = tested on: OVCAR-3 ovarian
OVCAR-4 ovarian = tested on: OVCAR-4 ovarian
OVCAR-5 ovarian = tested on: OVCAR-5 ovarian
OVCAR-8 ovarian = tested on: OVCAR-8 ovarian
PC-3 prostate = tested on: PC-3 prostate
RPMI-8226 leukemia = tested on: RPMI-8226 leukemia
RXF 393 renal = tested on: RXF 393 renal
SF-268 CNS = tested on: SF-268 CNS
SF-295 CNS = tested on: SF-295 CNS
SF-539 CNS = tested on: SF-539 CNS
SK-MEL-2 melanoma = tested on: SK-MEL-2 melanoma
SK-MEL-28 melanoma = tested on: SK-MEL-28 melanoma
SK-MEL-5 melanoma = tested on: SK-MEL-5 melanoma
SK-OV-3 ovarian = tested on: SK-OV-3 ovarian
SN12C renal = tested on: SN12C renal
SNB-19 CNS = tested on: SNB-19 CNS
SNB-75 CNS = tested on: SNB-75 CNS
SR leukemia = tested on: SR leukemia
SW-620 colon = tested on: SW-620 colon
T-47D breast = tested on: T-47D breast
TK-10 renal = tested on: TK-10 renal
U251 CNS = tested on: U251 CNS
UACC-257 melanoma = tested on: UACC-257 melanoma
UACC-62 melanoma = tested on: UACC-62 melanoma
UO-31 renal = tested on: UO-31 renal

For `Cc1ccc(NC(=O)N[C@@H](Cc2cc(F)cc(F)c2)C(=O)NC2C(=O)N3CCC[C@H]3C(=O)N3CCCC[C@H]3C(=O)N[C@@H](C)C(=O)N3C[C@H](C)C[C@H]3C(=O)O[C@H]2C)c(F)c1` (stereo partly drawn) ({X1-CO}-[Phe(3,5-F2)][ξThr(3S)]P[Pip]A[Pro(4R-Me)]; ester 2-C), the GI50 (786-0 renal) was 422 nM and 633 nM, the TGI (786-0 renal) was 50000 nM and > 100000 nM and the GI50 (A498 renal) was 5140 nM and 950 nM. For the same molecule, the TGI (A498 renal) was 41200 nM and 10200 nM, the GI50 (A549 NSCLC) was 223 nM and 640 nM and the TGI (A549 NSCLC) was 50000 nM and > 100000 nM. The GI50 (ACHN renal) was 321 nM and 528 nM, the TGI (ACHN renal) was 50000 nM and > 100000 nM and the GI50 (BT-549 breast) was 283 nM and 260 nM. For the same molecule, the TGI (BT-549 breast) was 12000 nM and 11800 nM, the GI50 (CAKI-1 renal) was 210 nM and 288 nM and the TGI (CAKI-1 renal) was 50000 nM and > 100000 nM. For the same molecule, the GI50 (CCRF-CEM leukemia) was 236 nM and 127 nM, the TGI (CCRF-CEM leukemia) was 50000 nM and 30100 nM and the GI50 (COLO 205 colon) was 124 nM and 156 nM. The TGI (COLO 205 colon) was 338 nM and 496 nM, the GI50 (DU-145 prostate) was 349 nM and 147 nM and the TGI (DU-145 prostate) was 50000 nM and > 100000 nM. The GI50 (EKVX NSCLC) was 252 nM and 377 nM, the TGI (EKVX NSCLC) was 50000 nM and > 100000 nM and the GI50 (HCC-2998 colon) was 255 nM and 390 nM. The TGI (HCC-2998 colon) was 9170 nM and 10800 nM, the GI50 (HCT-116 colon) was 266 nM and 65.3 nM and the TGI (HCT-116 colon) was 7470 nM and 11100 nM. For the same molecule, the GI50 (HCT-15 colon) was 231 nM and 357 nM, the TGI (HCT-15 colon) was 10000 nM and 14900 nM and the GI50 (HL-60(TB) leukemia) was 213 nM and 47.4 nM. The TGI (HL-60(TB) leukemia) was 8610 nM and 2050 nM, the GI50 (HOP-62 NSCLC) was 235 nM and 322 nM and the TGI (HOP-62 NSCLC) was 50000 nM and 46300 nM. The GI50 (HOP-92 NSCLC) was 163 nM and 251 nM, the TGI (HOP-92 NSCLC) was 9010 nM and 3050 nM and the GI50 (HS 578T breast) was 394 nM. For the same molecule, the TGI (HS 578T breast) was 50000 nM and 8560 nM, the GI50 (HT29 colon) was 276 nM and 302 nM and the TGI (HT29 colon) was 10200 nM and 10100 nM. The GI50 (IGROV1 ovarian) was 2470 nM and 828 nM, the TGI (IGROV1 ovarian) was 40400 nM and > 100000 nM and the GI50 (K-562 leukemia) was 134 nM and 43.7 nM. The TGI (K-562 leukemia) was 50000 nM and > 100000 nM, the GI50 (KM12 colon) was 533 nM and 384 nM and the TGI (KM12 colon) was 23500 nM and 24300 nM. The GI50 (LOX IMVI melanoma) was 131 nM and 425 nM, the TGI (LOX IMVI melanoma) was 6950 nM and 24400 nM and the GI50 (M14 melanoma) was 297 nM and 245 nM. For the same molecule, the TGI (M14 melanoma) was 9860 nM and 16400 nM, the GI50 (MALME-3M melanoma) was 410 nM and 561 nM and the TGI (MALME-3M melanoma) was 17100 nM and 19100 nM. The GI50 (MCF7 breast) was 206 nM and 195 nM, the TGI (MCF7 breast) was 50000 nM and 53500 nM and the GI50 (MDA-MB-231 breast) was 166 nM and 279 nM. For the same molecule, the TGI (MDA-MB-231 breast) was 1840 nM and 12800 nM, the GI50 (MDA-MB-435) was 230 nM and 117 nM and the TGI (MDA-MB-435) was 12300 nM and 14600 nM. For the same molecule, the GI50 (MOLT-4 leukemia) was 545 nM and 669 nM, the TGI (MOLT-4 leukemia) was 25800 nM and 22900 nM and the GI50 (NCI-H226 lung) was 272 nM and 368 nM. The TGI (NCI-H226 lung) was 40500 nM and 7750 nM, the GI50 (NCI-H23 lung) was 228 nM and the TGI (NCI-H23 lung) was 39400 nM. For the same molecule, the GI50 (NCI-H460 lung) was 220 nM and 222 nM, the TGI (NCI-H460 lung) was 50000 nM and 21000 nM and the GI50 (NCI-H522 lung) was 211 nM and 119 nM. For the same molecule, the TGI (NCI-H522 lung) was 8500 nM and 10700 nM, the GI50 (NCI/ADR-RES ovarian) was 1730 nM and 1700 nM and the TGI (NCI/ADR-RES ovarian) was 50000 nM and > 100000 nM. The GI50 (OVCAR-3 ovarian) was 360 nM and 312 nM, the TGI (OVCAR-3 ovarian) was 44900 nM and 13200 nM and the GI50 (OVCAR-4 ovarian) was 268 nM and 98.9 nM. For the same molecule, the TGI (OVCAR-4 ovarian) was 50000 nM and > 100000 nM, the GI50 (OVCAR-5 ovarian) was 275 nM and 506 nM and the TGI (OVCAR-5 ovarian) was 9740 nM and 16000 nM. For the same molecule, the GI50 (OVCAR-8 ovarian) was 194 nM and 64.6 nM, the TGI (OVCAR-8 ovarian) was 50000 nM and > 100000 nM and the GI50 (PC-3 prostate) was 181 nM and 111 nM. For the same molecule, the TGI (PC-3 prostate) was 50000 nM and > 100000 nM, the GI50 (RPMI-8226 leukemia) was 119 nM and 38 nM and the TGI (RPMI-8226 leukemia) was 6250 nM and 1300 nM. The GI50 (RXF 393 renal) was 2870 nM and 778 nM, the TGI (RXF 393 renal) was 17500 nM and 9160 nM and the GI50 (SF-268 CNS) was 393 nM and 446 nM. The TGI (SF-268 CNS) was 50000 nM and 48600 nM, the GI50 (SF-295 CNS) was 200 nM and 240 nM and the TGI (SF-295 CNS) was 11500 nM and 3580 nM. The GI50 (SF-539 CNS) was 696 nM and 709 nM, the TGI (SF-539 CNS) was 11100 nM and 16900 nM and the GI50 (SK-MEL-2 melanoma) was 198 nM and 164 nM. The TGI (SK-MEL-2 melanoma) was 7580 nM and 921 nM, the GI50 (SK-MEL-28 melanoma) was 467 nM and 709 nM and the TGI (SK-MEL-28 melanoma) was 13800 nM and 18400 nM. For the same molecule, the GI50 (SK-MEL-5 melanoma) was 199 nM and 397 nM, the TGI (SK-MEL-5 melanoma) was 7290 nM and 7900 nM and the GI50 (SK-OV-3 ovarian) was 225 nM and 360 nM. The TGI (SK-OV-3 ovarian) was 17400 nM and 7040 nM, the GI50 (SN12C renal) was 171 nM and 303 nM and the TGI (SN12C renal) was 50000 nM and > 100000 nM. The GI50 (SNB-19 CNS) was 208 nM and 187 nM, the TGI (SNB-19 CNS) was 50000 nM and > 100000 nM and the GI50 (SNB-75 CNS) was 289 nM. The TGI (SNB-75 CNS) was 50000 nM, the GI50 (SR leukemia) was 334 nM and 626 nM and the TGI (SR leukemia) was 12100 nM and 21600 nM. For the same molecule, the GI50 (SW-620 colon) was 433 nM and 483 nM, the TGI (SW-620 colon) was 50000 nM and > 100000 nM and the GI50 (T-47D breast) was 222 nM and 314 nM. For the same molecule, the TGI (T-47D breast) was 50000 nM and 18000 nM, the GI50 (TK-10 renal) was 385 nM and 791 nM and the TGI (TK-10 renal) was 50000 nM and 42700 nM. The GI50 (U251 CNS) was 210 nM and 336 nM, the TGI (U251 CNS) was 50000 nM and > 100000 nM and the GI50 (UACC-257 melanoma) was 191 nM and 316 nM. The TGI (UACC-257 melanoma) was 7580 nM and 7520 nM, the GI50 (UACC-62 melanoma) was 247 nM and 451 nM and the TGI (UACC-62 melanoma) was 10700 nM and 19300 nM. The GI50 (UO-31 renal) was 585 nM and 456 nM and the TGI (UO-31 renal) was 50000 nM and > 100000 nM.
